Laboratory results: the CheMixHub viscosity set
Values joined by “and” are separate entries in the source; they are usually repeats but may differ in a detail not shown here. Equal entries are not always repeated.

Legend:
[1] = xn = mol fraction of the nth substance listed

CC(=O)c1ccccc1
viscosity
Settings	303.15 K	308.15 K	313.15 K	323.15 K
100 kPa	1.455 mPa·s	1.415 mPa·s	1.233 mPa·s and 1.269 mPa·s	1.061 mPa·s
101 kPa	1.533 mPa·s (2×) and 1.533 mPa·s and 1.533 mPa·s	–	1.266 mPa·s and 1.266 mPa·s and 1.269 mPa·s	1.051 mPa·s
101.3 kPa	–	–	1.317 mPa·s	1.285 mPa·s

CCCCCCCCC
viscosity
Settings	298.15 K	303.15 K	308.15 K	313.15 K	318.15 K	323.15 K
100 kPa	0.668 mPa·s	0.627 mPa·s	–	0.556 mPa·s	0.526 mPa·s	0.498 mPa·s
101 kPa	0.6626 mPa·s and 0.6588 mPa·s and 0.668 mPa·s	0.641 mPa·s	0.5808 mPa·s and 0.588 mPa·s and 0.5974 mPa·s	0.5652 mPa·s	0.512 mPa·s	0.5073 mPa·s
101.33 kPa	–	–	–	0.535 mPa·s	0.505 mPa·s	–

CCCCCCCCc1ccccc1
102 kPa
Settings	viscosity [mPa·s]
293.15 K	2.57
303.15 K	2.08
313.15 K	1.73
323.15 K	1.46

CCCOCCC
Settings	viscosity [mPa·s]
298.15 K, 101.33 kPa	0.4024

C1COCO1
viscosity
Settings	298.15 K	303.15 K	308.15 K	313.15 K	318.15 K	323.15 K
101 kPa	0.587 mPa·s	0.62 mPa·s	0.58 mPa·s and 0.513 mPa·s and 0.5128 mPa·s	0.55 mPa·s	0.53 mPa·s and 0.458 mPa·s and 0.458 mPa·s	0.4183 mPa·s and 0.51 mPa·s
101.3 kPa	0.5919 mPa·s	–	–	0.5 mPa·s	–	–

CCCOCC(C)O (centres undefined)
viscosity [mPa·s]
Settings	298.15 K	303.15 K	308.15 K	318.15 K
100 kPa	2.451	2.094	1.885	–
101.33 kPa	2.389	–	1.822	1.416

CC(N)CN (centres undefined)
viscosity
Settings	293.15 K	298.15 K	303.15 K	308.15 K	313.15 K	318.15 K	323.15 K
101 kPa	–	1.481 mPa·s	1.314 mPa·s and 1.325 mPa·s	1.175 mPa·s and 1.192 mPa·s	1.058 mPa·s and 1.084 mPa·s	0.9597 mPa·s and 0.9891 mPa·s	0.9091 mPa·s
101.33 kPa	1.61 mPa·s	1.49 mPa·s and 1.47 mPa·s	1.31 mPa·s and 1.34 mPa·s	1.19 mPa·s and 1.13 mPa·s	1.06 mPa·s and 1.06 mPa·s	0.96 mPa·s and 0.97 mPa·s	–

C#CCO
viscosity [mPa·s]
Settings	303.15 K	308.15 K	313.15 K	318.15 K	323.15 K
101 kPa	1.345	1.214	1.103	1.01	0.9277
101.32 kPa	–	1.221	1.12	1.017	0.9331

CC(C)OC(C)C
viscosity
Settings	293.15 K	298.15 K	303.15 K	308.15 K	313.15 K	318.15 K	323.15 K
100 kPa	0.332 mPa·s	0.319 mPa·s	0.304 mPa·s	0.29 mPa·s and 0.29 mPa·s	0.274 mPa·s	0.261 mPa·s	0.246 mPa·s
101 kPa	–	0.315 mPa·s	–	–	–	–	–
101.33 kPa	0.34 mPa·s	0.322 mPa·s	0.31 mPa·s	0.293 mPa·s	0.279 mPa·s	–	–

CCC(O)CC
viscosity [mPa·s]
Settings	293.15 K	298.15 K	303.15 K	308.15 K	313.15 K	318.15 K	323.15 K
101 kPa	4.646	4.81	3.506	2.773	2.23	1.895	1.528
101.33 kPa	–	–	3.852	–	2.272	–	1.543

CC[NH2+]CC.O=S(=O)([O-])O
101 kPa
Settings	viscosity [mPa·s]
303.15 K	28.9
308.15 K	24.6
313.15 K	21.9

CN1CCCCCC1=O
Settings	viscosity [mPa·s]
298.16 K, 101 kPa	4.92

CCN(CCO)CCO
101 kPa
Settings	viscosity [mPa·s]
303.15 K	48.27
308.15 K	36.72
313.15 K	28.36
318.15 K	22.31
323.15 K	17.78

ClC(Cl)C(Cl)(Cl)Cl
101 kPa
Settings	viscosity [mPa·s]
298.15 K	2.26
303.15 K	1.971

C1COCO1 + CCC(C)O
viscosity [mPa·s], [1]
Settings	298.15 K	303.15 K	313.15 K
101 kPa, x1 = 0.1001	–	1.516	–
101 kPa, x1 = 0.2001	–	1.181	–
101 kPa, x1 = 0.3001	–	0.9354	–
101 kPa, x1 = 0.4001	–	0.812	–
101 kPa, x1 = 0.5001	–	0.7072	–
101 kPa, x1 = 0.6001	–	0.6589	–
101 kPa, x1 = 0.7001	–	0.612	–
101 kPa, x1 = 0.8001	–	0.5894	–
101 kPa, x1 = 0.9001	–	0.5588	–
101.33 kPa, x1 = 0.0987	1.997	–	1.29
101.33 kPa, x1 = 0.1966	1.454	–	1.016
101.33 kPa, x1 = 0.2957	1.149	–	0.8449
101.33 kPa, x1 = 0.3994	0.9497	–	0.7262
101.33 kPa, x1 = 0.5008	0.8242	–	0.6486
101.33 kPa, x1 = 0.6023	0.7412	–	0.593
101.33 kPa, x1 = 0.699	0.6698	–	0.55
101.33 kPa, x1 = 0.8014	0.6265	–	0.5218
101.33 kPa, x1 = 0.9023	0.5997	–	0.5052

CCCCCCCC/C=C\CCCCCCCC(=O)OCC(COC(=O)CCCCCCC/C=C\CCCCCCCC)OC(=O)CCCCCCC/C=C\CCCCCCCC + CCCCCCCC
viscosity [mPa·s], [1], 101.33 kPa
Settings	x1 = 0.000908	x1 = 0.001916	x1 = 0.004907	x1 = 0.0101	x1 = 0.02609	x1 = 0.03555	x1 = 0.05997	x1 = 0.08297
293.15 K	0.5531	0.5668	0.6068	0.6753	0.9348	1.11	1.638	2.268
298.15 K	0.5204	0.5329	0.5699	0.6331	0.8701	1.03	1.505	2.064
303.15 K	0.4903	0.502	0.536	0.5947	0.8126	0.9579	1.388	1.894
308.15 K	0.4628	0.4737	0.5055	0.5596	0.7605	0.8936	1.284	1.741
313.15 K	0.4377	0.4478	0.4774	0.5277	0.7134	0.8357	1.191	1.606

[Al+3].[Cl-].[Cl-].[Cl-] + O
Settings	viscosity [mPa·s]
[1], 293.15 K, 101 kPa, x1 = 0.039	5.58

O=S(Cl)Cl + Cc1cc(C)cc(C)c1
[1], 298.15 K, 101 kPa
Settings	viscosity [mPa·s]
x1 = 0.234	0.685
x1 = 0.314	0.6908
x1 = 0.432	0.6952
x1 = 0.571	0.6939
x1 = 0.743	0.677
x1 = 0.9	0.6495

O=S(Cl)Cl + c1ccccc1
[1], 298.15 K, 101 kPa
Settings	viscosity [mPa·s]
x1 = 0.181	0.5962
x1 = 0.366	0.5999
x1 = 0.481	0.602
x1 = 0.686	0.6068
x1 = 0.877	0.6165

CCCCCC(=O)[O-].[Na+] + CCCCCCCCCC(=O)O
[1], 100 kPa, x1 = 0.3
Settings	viscosity [mPa·s]
293.15 K	285.4
298.15 K	213.6
303.15 K	162.3
308.15 K	125.7
313.15 K	98.9
318.15 K	79
323.15 K	63.9

CCCCCCn1cc[n+](C)c1.[Br-] + O
[1], 303.15 K, 101 kPa
Settings	viscosity [mPa·s]
x2 = 0.2196	695.5
x2 = 0.2978	395.5
